Patent US20230173113A1, “CYCLIC PEPTIDES AND THEIR CONJUGATES FOR ADDRESSING ALPHA-V-BETA-6 INTEGRIN IN VIVO” (Technische Universität München, priority 2020, published 2023)

Key:
[1] = tested on: H2009 tumor-bearing SCID mice; assay: biokinetics from 90-min dynamic PET scans; details: mouse, in vivo
Excerpt: All animal studies have been performed in accordance with general animal welfare regulations in Germany and the institutional guidelines for the care and use of animals. H2009 human lung adenocarcinoma cells (CRL-5911; American Type Culture Collection) were cultivated as recommended by the distributor. To generate tumor xenografts, 6- to 8-week-old female CB17 SCID mice (Charles River) were inoculated with 10^7 H2009 cells in Matrigel (CultrexBME, type 3 PathClear; Trevigen, GENTAUR GmbH). Mice were used for biodistribution or PET studies when tumors had grown to a diameter of 10-12 mm (4-6 weeks after inoculation).
Mice were anaesthetized with isoflurane for intravenous administration of the radiolabeled compounds. The administered activity per mouse ranged between 10 and 15 MBq (100-200 pmol, depending on variations in timing of production and administration). PET imaging was performed on a Siemens Inveon small-animal PET system, either dynamic under isoflurane anaesthesia for 90 min, or as single frames 75 min p.i. with an acquisition time of 20 min. Data were reconstructed using Siemens Inveon Research Workspace software, employing a three-dimensional ordered subset expectation maximum (OSEM3D) algorithm without scatter and attenuation correction. For kinetic analyses, regions of interest (ROIs) were defined manually.

αvβ5 = αvβ5 (Homo sapiens, UniProt P06756+P18084); details: cited from earlier work
[2] = up to 3 h; cited from earlier work
αvβ6-integrin = αvβ6-integrin (Homo sapiens, UniProt P06756+P18564); details: cited from earlier work
Chain of αvβ6-integrin (P06756 31-992 limits assumed): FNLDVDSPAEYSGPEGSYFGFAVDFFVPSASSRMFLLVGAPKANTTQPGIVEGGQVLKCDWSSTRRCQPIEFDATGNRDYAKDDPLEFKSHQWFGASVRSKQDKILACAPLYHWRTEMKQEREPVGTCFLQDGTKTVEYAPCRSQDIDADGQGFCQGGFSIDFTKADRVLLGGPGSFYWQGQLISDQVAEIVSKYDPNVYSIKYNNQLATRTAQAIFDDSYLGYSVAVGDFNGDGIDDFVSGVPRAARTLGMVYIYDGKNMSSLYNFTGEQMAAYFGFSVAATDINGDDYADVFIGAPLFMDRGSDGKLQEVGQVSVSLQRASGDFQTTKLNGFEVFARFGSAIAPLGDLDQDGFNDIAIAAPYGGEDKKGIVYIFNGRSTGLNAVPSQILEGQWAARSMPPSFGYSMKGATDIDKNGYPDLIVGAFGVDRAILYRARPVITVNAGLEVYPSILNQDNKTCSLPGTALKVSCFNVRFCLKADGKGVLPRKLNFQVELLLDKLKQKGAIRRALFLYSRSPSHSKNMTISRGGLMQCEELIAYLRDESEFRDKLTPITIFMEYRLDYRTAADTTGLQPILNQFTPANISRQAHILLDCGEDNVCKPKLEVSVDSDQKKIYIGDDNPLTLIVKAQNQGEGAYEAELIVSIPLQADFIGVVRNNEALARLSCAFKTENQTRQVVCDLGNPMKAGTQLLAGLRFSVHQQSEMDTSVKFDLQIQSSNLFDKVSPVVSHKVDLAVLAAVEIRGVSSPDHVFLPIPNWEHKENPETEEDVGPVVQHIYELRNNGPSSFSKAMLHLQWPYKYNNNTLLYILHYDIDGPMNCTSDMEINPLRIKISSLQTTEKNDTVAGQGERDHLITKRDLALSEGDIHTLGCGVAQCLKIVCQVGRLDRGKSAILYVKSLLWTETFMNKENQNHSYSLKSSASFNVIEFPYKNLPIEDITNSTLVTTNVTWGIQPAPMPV
Chain of αvβ6-integrin (P18564 22-707 limits assumed): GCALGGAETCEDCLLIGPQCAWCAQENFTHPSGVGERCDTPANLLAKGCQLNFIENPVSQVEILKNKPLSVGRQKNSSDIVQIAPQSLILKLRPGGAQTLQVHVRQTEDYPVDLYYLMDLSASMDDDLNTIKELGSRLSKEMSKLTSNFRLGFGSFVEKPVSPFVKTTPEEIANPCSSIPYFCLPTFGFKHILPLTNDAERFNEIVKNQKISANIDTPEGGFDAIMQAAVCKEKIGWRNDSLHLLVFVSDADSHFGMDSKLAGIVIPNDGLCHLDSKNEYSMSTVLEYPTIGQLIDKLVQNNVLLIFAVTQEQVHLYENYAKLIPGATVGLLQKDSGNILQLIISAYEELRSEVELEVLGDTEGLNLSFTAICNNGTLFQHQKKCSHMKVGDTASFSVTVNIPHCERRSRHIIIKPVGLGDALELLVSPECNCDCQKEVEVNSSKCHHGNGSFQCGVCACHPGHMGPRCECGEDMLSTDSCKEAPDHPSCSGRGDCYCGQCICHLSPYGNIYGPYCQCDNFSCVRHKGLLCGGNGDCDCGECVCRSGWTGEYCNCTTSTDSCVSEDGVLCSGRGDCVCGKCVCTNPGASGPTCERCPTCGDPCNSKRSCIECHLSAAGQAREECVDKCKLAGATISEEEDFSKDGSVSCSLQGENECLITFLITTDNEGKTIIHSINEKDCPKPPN

αvβ3 = αvβ3 (Homo sapiens, UniProt P05106+P06756); details: cited from earlier work
Chain of αvβ3 (P06756 31-992 limits assumed): as the sequence (P06756 31-992 limits assumed) above
Chain of αvβ3 (P05106 27-718 limits assumed): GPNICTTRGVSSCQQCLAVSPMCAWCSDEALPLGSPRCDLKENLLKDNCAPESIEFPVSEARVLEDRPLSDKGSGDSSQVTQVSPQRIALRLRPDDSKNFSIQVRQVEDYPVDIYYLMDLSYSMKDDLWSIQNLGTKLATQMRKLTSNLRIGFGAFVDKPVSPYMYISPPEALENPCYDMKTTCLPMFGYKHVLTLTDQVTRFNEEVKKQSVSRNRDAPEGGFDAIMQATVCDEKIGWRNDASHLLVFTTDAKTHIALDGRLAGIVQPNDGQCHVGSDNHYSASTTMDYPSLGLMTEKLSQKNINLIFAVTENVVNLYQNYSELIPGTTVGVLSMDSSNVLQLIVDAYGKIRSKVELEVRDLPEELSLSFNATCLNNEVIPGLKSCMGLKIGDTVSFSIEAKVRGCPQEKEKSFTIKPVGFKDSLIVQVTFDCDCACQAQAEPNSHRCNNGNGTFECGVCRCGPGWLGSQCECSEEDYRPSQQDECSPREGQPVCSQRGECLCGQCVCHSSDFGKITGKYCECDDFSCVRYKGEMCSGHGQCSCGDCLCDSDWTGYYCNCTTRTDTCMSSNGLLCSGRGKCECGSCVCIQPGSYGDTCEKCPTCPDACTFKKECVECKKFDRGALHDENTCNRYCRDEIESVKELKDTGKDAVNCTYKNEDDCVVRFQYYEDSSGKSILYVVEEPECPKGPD

α5β1 = α5β1 (Homo sapiens, UniProt P05556+P08648); details: cited from earlier work
Chain of α5β1 (P08648 42-995 limits assumed): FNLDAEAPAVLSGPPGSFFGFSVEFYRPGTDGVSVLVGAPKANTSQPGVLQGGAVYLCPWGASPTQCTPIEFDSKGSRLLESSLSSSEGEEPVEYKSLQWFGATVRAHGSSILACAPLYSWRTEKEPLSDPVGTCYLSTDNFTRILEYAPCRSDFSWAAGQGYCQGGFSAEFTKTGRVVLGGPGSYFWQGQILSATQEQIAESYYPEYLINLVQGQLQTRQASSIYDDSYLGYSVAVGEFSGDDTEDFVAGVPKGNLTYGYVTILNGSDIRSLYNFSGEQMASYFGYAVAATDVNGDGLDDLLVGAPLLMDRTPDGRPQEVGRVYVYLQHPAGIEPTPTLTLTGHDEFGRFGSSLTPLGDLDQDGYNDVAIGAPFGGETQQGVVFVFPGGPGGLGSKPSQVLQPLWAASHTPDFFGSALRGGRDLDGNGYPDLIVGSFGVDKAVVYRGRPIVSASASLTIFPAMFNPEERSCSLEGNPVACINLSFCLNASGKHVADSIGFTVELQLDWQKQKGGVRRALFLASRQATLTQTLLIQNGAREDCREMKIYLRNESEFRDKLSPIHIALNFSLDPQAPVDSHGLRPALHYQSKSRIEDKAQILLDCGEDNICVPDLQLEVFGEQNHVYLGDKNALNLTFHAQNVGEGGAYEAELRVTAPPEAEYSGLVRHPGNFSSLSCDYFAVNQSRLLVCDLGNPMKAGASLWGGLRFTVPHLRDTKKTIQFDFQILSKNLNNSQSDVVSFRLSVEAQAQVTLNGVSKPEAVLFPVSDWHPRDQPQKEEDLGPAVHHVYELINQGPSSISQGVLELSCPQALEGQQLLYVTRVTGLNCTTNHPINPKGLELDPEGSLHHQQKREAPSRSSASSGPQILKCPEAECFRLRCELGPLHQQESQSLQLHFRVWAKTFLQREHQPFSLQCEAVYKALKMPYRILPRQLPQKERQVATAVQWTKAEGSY
Chain of α5β1 (P05556 21-728 limits assumed): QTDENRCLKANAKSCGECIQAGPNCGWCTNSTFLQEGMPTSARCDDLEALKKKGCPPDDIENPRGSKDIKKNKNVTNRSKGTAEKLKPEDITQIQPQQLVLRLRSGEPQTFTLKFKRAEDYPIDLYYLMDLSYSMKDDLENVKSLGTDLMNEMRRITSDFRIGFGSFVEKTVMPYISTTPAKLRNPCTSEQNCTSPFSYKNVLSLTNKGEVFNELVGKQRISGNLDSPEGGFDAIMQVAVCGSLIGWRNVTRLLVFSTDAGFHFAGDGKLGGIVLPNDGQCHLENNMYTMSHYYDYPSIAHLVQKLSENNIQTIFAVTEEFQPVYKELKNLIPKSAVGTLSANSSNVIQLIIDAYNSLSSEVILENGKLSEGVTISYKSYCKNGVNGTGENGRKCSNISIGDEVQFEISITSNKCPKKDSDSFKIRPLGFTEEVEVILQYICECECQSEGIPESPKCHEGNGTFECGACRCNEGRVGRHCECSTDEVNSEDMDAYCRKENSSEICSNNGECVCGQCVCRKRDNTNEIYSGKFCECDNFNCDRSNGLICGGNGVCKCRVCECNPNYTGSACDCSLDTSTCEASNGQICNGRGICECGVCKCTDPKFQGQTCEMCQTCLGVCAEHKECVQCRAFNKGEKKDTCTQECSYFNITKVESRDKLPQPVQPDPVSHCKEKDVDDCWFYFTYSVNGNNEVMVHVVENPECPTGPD

αIIbβ3 = αIIbβ3 (Homo sapiens, UniProt P05106+P08514); details: cited from earlier work

Compound | clearance from the blood pool [1] | affinity αvβ5 (selectivity against other integrins) (αvβ5) [µM] | stability in human plasma [2] | affinity to αvβ6-integrin (αvβ6-integrin) [nM] | affinity αvβ3 (selectivity against other integrins) (αvβ3) [nM] | affinity α5β1 (selectivity against other integrins) (α5β1) [nM] | affinity αIIbβ3 (selectivity against other integrins) (αIIbβ3) [µM]
CC(C)C[C@@H]1NC(=O)[C@H](CC(=O)O)NC(=O)CNC(=O)[C@H](CCCNC(=N)N)NC(=O)[C@H](Cc2ccc(O)cc2)NC(=O)[C@H](CCCCNC(=O)CCc2cn(CCCNC(=O)CCP(=O)(O)CN3CCN(CP(=O)(O)CCC(=O)NCCCn4cc(CCC(=O)NCCCC[C@H]5C(=O)N[C@@H](Cc6ccc(O)cc6)C(=O)N[C@@H](CCCNC(=N)N)C(=O)NCC(=O)N[C@@H](CC(=O)O)C(=O)N[C@@H](CC(C)C)C(=O)N[C@@H](C)C(=O)N[C@@H](Cc6ccccc6)C(=O)N6CCC[C@@H]6C(=O)N5C)nn4)CCN(CP(=O)(O)CCC(=O)NCCCn4cc(CCC(=O)NCCCC[C@H]5C(=O)N[C@@H](Cc6ccc(O)cc6)C(=O)N[C@@H](CCCNC(=N)N)C(=O)NCC(=O)N[C@@H](CC(=O)O)C(=O)N[C@@H](CC(C)C)C(=O)N[C@@H](C)C(=O)N[C@@H](Cc6ccccc6)C(=O)N6CCC[C@@H]6C(=O)N5C)nn4)CC3)nn2)N(C)C(=O)[C@H]2CCCN2C(=O)[C@H](Cc2ccccc2)NC(=O)[C@H](C)NC1=O [Ga-68-C-9, metal not drawn] | much faster than that of Ga-68-TRAP(Phe2)3 |  |  |  |  |  | 
cyclo(FRGDLAFp(NMe)K) [Phe2] |  | > 1 | full stability | 0.26 | 632 | 73 | > 1
